Test results from PMC12684391, “Mechanistic insights into the monotherapy and combination potential of FEN1 inhibition in cancer therapy” (Nucleic Acids Research, 2025).
pEC50, pIC50: −log10 of the molar value.

Key:
[1] = test system: SUM149PT 53BP1KO and SHLD2KO cells; assay: Cell viability assay (CTG), 7 days, PARP inhibitor resistant models; format: cell-based; conditions: less sensitive than parental
Description: Cells were seeded in 150 μl of media in 96-well plates or in 70 μl of media in 384-well plates pre-dosed with compounds (8–10 points dose response) with a D300e digital dispenser (Tecan) and incubated for 24 h at 37°C and 5% CO2. Cell proliferation at the end of the assay (7 days) was measured using CTG (Promega, G9243). CTG luminescence was normalized to vehicle treated control for each cell line, and data were fitted with a nonlinear regression curve (four parameters) to generate compound sensitivity curves and determine IC50 or EC50 (half maximal inhibitory/effective concentration) values as indicated.

FEN1 (1-380) FL-6His = target: T1, FEN1 (1-380) FL-6His (Homo sapiens, UniProt P39748); assay: Differential scanning fluorimetry; format: binding; conditions: compound 100 µM
T1 construct: FEN1(1-380)-6His was immobilized on a CM5 chip; made in house; host or cells: Escherichia coli
T1 sequence (P39748 whole entry): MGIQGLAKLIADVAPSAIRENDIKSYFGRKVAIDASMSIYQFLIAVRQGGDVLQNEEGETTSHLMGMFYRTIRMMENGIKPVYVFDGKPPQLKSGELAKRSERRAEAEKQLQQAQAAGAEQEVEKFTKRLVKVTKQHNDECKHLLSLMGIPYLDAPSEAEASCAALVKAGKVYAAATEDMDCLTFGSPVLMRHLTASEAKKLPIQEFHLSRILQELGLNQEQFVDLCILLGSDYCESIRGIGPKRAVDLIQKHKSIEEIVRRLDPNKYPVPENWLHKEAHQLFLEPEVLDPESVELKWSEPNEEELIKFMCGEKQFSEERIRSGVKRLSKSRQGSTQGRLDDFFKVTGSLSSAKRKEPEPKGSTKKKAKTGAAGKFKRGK
Description: A volume of 100 nl of each compound at stock concentration of 10 mM was dispensed into a 384-well skirted PCR Plate (MicroAmp™ Optical plate) using a D300e digital dispenser (Tecan). Wells were normalized such that each contained 1% (v/v) DMSO and final compound concentration of 100 µM.
FEN1 (1-380) FL-6His protein (1.25×) and protein 5× thermal shift dye (Thermo Fisher Scientific) were prepared separately in freshly prepared differential scanning fluorimetry (DSF) assay buffer (20 mM Tris–HCl pH 7.5, 100 mM potassium chloride, 5 mM magnesium chloride, and 1 mM dithiothreitol). Eight microliters of 1.25× Fen1 (10 µM) was added to the appropriate well, plate sealed with aluminium sealing film (Axygen), and centrifuged at 500 × g for 1 min before incubating for 30 min at 4°C. After the incubation period, the plate was centrifuged again at 500 × g for 1 min and 2 µl of 5× protein thermal shift dye was added. […] Fluorescence was measured using a Quantstudio pro7.0 qPCR machine (Thermo Fisher Scientific) using internal optical ×1 filter (470 ± 15 nm) for excitation and m3 filter (586 ± 10 nm) for emission.
Each experiment was run in quadruplicates and melting temperatures (Tm) calculated as the inflection point of the derivative function using the protein thermal shift software (Thermo Fisher Scientific). DeltaTm was calculated using the Tm of protein with 1% DMSO as reference.

EXO1 = target: T2, EXO1 (Homo sapiens, UniProt Q9UQ84); assay: Fluorescence-based nuclease activity assay, EXO1; format: biochemical; conditions: n = 3, SD = 223; cognate substrate
T2 construct: EXO1 (1-846); purchased Peak Proteins, Macclesfield, UK
T2 sequence (Q9UQ84 whole entry): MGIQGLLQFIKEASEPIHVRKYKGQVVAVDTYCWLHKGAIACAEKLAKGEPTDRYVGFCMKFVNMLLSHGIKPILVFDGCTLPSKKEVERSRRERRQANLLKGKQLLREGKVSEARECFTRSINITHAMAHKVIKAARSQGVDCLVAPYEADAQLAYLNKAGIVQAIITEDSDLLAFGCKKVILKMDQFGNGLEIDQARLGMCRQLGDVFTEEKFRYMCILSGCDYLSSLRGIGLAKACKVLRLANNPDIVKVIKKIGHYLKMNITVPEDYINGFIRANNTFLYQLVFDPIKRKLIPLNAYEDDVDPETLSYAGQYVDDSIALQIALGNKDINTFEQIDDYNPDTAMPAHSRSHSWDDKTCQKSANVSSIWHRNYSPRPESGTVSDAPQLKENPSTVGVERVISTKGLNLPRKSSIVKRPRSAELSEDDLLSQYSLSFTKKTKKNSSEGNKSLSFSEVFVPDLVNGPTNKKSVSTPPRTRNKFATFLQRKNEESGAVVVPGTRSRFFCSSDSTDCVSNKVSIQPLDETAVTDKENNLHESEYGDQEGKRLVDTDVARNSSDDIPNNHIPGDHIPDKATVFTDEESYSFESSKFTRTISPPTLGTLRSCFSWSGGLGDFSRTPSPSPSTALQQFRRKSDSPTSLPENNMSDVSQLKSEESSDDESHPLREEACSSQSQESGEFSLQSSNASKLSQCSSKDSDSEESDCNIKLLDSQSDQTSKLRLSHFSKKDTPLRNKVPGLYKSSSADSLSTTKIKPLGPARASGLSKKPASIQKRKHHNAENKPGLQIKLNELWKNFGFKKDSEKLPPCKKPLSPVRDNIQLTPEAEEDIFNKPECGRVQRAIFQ
Description: MSC778 was dissolved in dimethyl sulphoxide (DMSO) to give a 10 mM stock. FEN1/EXO1: compound was dispensed into black 384-shallow well microplates (Greiner #784076). The compound was dispensed as an 11-point dose response with a 3-fold serial dilution from a top concentration of 10 mM (to give a final in-assay concentration of 100 µM). GEN1/XPG: MSC778 was dispensed into black 1536-well plates (Greiner #782076). The compound was dispensed as a 20-point dose response with a 3-fold serial dilution from a top concentration of 10 mM (to give a final in-assay concentration of 100 µM). The volume of DMSO was adjusted to ensure that each well contained 1% (v/v) DMSO in the final assay. Control wells containing DMSO alone or inhibitor at sufficient concentration to cause complete inhibition of the reaction were also included. […]
5 µl (FEN1/EXO1) or 3 µl per well (GEN1/XPG) of stop buffer (20 mM Tris pH 7.5, 300 mM EDTA) was added to all wells, then the plates were read on the CLARIOstar Plus (BMG LABTECH Ltd.) using the Fluorescein (FITC) wavelengths (Ex 483 ± 14, Em 530 ± 30, Dichroic auto/502.5) and auto focal height/gain settings.
All data analysis was carried out using Genedata Screener software. IC50 values were calculated using the SmartFit function.

MDA-MB-436 cells = assay: Colony formation assay; format: cell-based
Description: Exponentially growing DLD-1, DLD-1 BRCA2^KO, SUM149PT, and MDA-MB-436 were seeded on 24-well plates at densities of 100, 400, 500, or 650 cells/well, respectively. Cells were treated with a serial dilution of FEN1 inhibitor and incubated for 11 days (DLD-1 and SUM149PT) or 14 days (DLD-1 BRCA2^KO and MDA-MB-436). Colonies were washed with PBS, fixed with 70% ethanol, and stained with 1% crystal violet solution (Sigma–Aldrich). Excess crystal violet solution was washed off using tap water and images were acquired using a GelCount Scanner (Oxford Optronix). Dye was solubilized with 10% acetic acid (VWR) and absorbance at 595 nm measured using a CLARIOstar plate reader (BMG LABTECH Ltd.). Raw absorbance data for each cell line were normalized to DMSO treatment. Data were fitted with a nonlinear regression curve (four parameters) to determine EC50 (half maximal inhibitory concentration) values.

- Thermal stabilization of FEN1 (DSF) (FEN1 (1-380) FL-6His): thermally stabilized FEN1
- pIC50 (EXO1): 6.06
Structure (SMILES): C[C@H](Oc1nn2c(c(O)c1=O)C(=O)N1CCOC[C@@H]1C2)c1ccc2ccc(Cl)cc2c1 [MSC778]
- Change in sensitivity of SUM149PT 53BP1KO and SHLD2KO cells versus parental cells [1]: 2 fold
- pEC50 (MDA-MB-436 cells; Homo sapiens, 336 h, MDA-MB-436, 14 days, read-out: Colony survival EC50): 7.19
- Enhancement in sensitivity in colony survival versus 7-day viability assay (MDA-MB-436 cells; MDA-MB-436): 10 fold
